Source: patent US10253002B2, “Compounds and methods of treating infections” (Neoculi Pty Ltd., priority 2013, dated 2019)
≈ marks a conversion by molar mass, not a printed value. Like-named read-outs stand apart in the source and are kept apart here.

System: methicillin-resistant Staphylococcus aureus (MRSA)
Assay: Broth microdilution MIC (CLSI), Example 1
Assay type: cell-based
Description: Cation adjusted Mueller Hinton Broth (CAMHB) was prepared using 100 mL sterile Mueller Hinton broth (pH adjusted). To each 100 mL volume, 125 μL of calcium stock solution (10 mg Ca^2+ per ml) and 43 μL magnesium stock solution (10 mg Mg^2+ per mL) was aseptically added. Sufficient broth is made up for daily use, with unused portions being stored at 4° C. overnight.
Potency was described as 1000 mg/g or 100%. The powder was dissolved in 10 mL DMSO and 1 mL volumes were aliquoted into eppendorf tubes and stored at −80° C.
For Staphylococcus aureus, a working solution of 256 μg/mL was prepared by diluting stock solutions as described above 1:100 in CAMHB (100 μL into 9.9 mL).
Serial dilutions were prepared in 96 well plates were set up in a safety cabinet according to methods standard in the art. Briefly: 90 μL of the working antibiotic solution was added to each well in Column 12 of the plate, and mixed well, before 90 μL was transferred to column 11. The solutions were mixed again, and then transferred to the next column as before, continuing the dilutions through to column 3. Mixing the well requires the pick up and expulsion of 90 μL in each well 3-4 times before picking up and transferring the 90 μL to the next well. […] The trays were set up as follows: 2 strains were tested in duplicate in one tray, such that strain 1 was located in rows A to D, strain 2 was located in rows E to H, etc.
Fresh cultures of bacteria were prepared for testing on sheep blood agar (SBA), and overnight incubation at 37° C. as follows; 2-3 colonies of each strain in 7 mL sterile saline, and the OD600 measured as an indication of the density (approx. […] or 0.5 McFarland Standard). The bacterial suspension was adjusted to a final absorbance of 0.08 to 0.100, using saline to achieve correct density, and as the blank. Within 15 minutes of preparation, the adjusted bacterial suspension with sterile saline 1:20 (1 mL into 19 mL sterile saline) to achieve a final bacterial concentration of 4 to 5×10^6 CFU/mL. The bacterial solution was placed into a sterile trough and 10 μL of bacterial solution added into wells 2 through to 12 on each required row (dilution of 1:10, with final concentration of bacteria in wells=5×10^5 CFU/mL). The tray was sealed and incubated at 37° C. for 18-24 h. The purity of bacterial suspension was confirmed by streaking out 50 μL of the 1:20 dilution onto a SBA plate, which was incubated for 37° C. for 18 h and examined. Viable counts were carried out to ensure that the correct concentration of bacteria and been added to the wells. The diluted bacterial solution (4 to 5×10^6 CFU/mL) was diluted 1:10 downwards by adding 100 μL to 900 μL of sterile saline in sterile tubes, and the serial dilutions continued 1:10 for 5 tubes. 100 μL (4-5 drops) of the 4th and 5th dilutions (tube 4=105 and tube 5=10^6 CFU/ml) was plated around in duplicate on pre-dried PCA agar plates and incubated at 37° C. overnight. The following day the number of colonies on the plates was counted and the average count in 100 μL obtained. The study was multiplied by 10 to obtain a viable bacterial count per mL.
Minimum inhibitory concentrations (μg/mL) were determined using the broth microdilution method recommended by the Clinical and Laboratory Standards Institute (CLSI) (Methods for Dilution Antimicrobial Susceptibility Tests for Bacteria That Grow Aerobically; Approved Standard—Seventh Edition. CLSI M7-A7, 2006; Performance Standards for Antimicrobial Disk and Dilution Susceptibility Tests for Bacteria Isolated from Animals; Approved Standard—Second Edition. CLSI M31-A2, 2002; Performance Standards for Antimicrobial Susceptibility Testing; CLSI M2-A9, 2006).
MIC breakpoints were determined by visual assessment and then confirmed using an ELISA plate reader, measuring absorbance levels at 450 nm.

[1] = Staphylococcus aureus, MRSA, MRSA 616, Test 1, read-out: MIC
[2] = Staphylococcus aureus, MRSA, MRSA 747, Test 1, read-out: MIC

Question: For `N=C(N/N=C/c1ccc(Cl)cc1)N/N=C/c1ccc(Cl)cc1` [NCL812, 1,3-bis[(E)-(4-chlorophenyl)methyleneamino]guanidine], which MIC [1] is on record?
Answer: 8 µg/mL (≈ 23.9 µM)

Question: And the MIC [2]?
Answer: 8 µg/mL (≈ 23.9 µM)

Question: For `CC1(C)S[C@@H]2[C@H](NC(=O)[C@H](N)c3ccccc3)C(=O)N2[C@H]1C(=O)O` [Ampicillin], which MIC90 (MRSA, 21 isolates) is on record?
Answer: > 128 µg/mL

Question: And the MIC90 (MRSA, Staphylococcus aureus isolates of Table 3, Test 1, read-out: MIC90)?
Answer: > 128 µg/mL

Question: What about the MIC90 (Staphylococcus aureus isolates of Table 3, Test 2) of the same molecule?
Answer: >128 µg/mL

Question: And the MIC (Staphylococcus aureus, ATCC 29213 / MRSA, S. aureus strain ATCC 29213, read-out: MIC of control strain (internal quality control))?
Answer: 2 µg/mL

Question: What about the MIC (Staphylococcus aureus, ATCC 29213 / MRSA, Staph. aureus ATCC 29213, Test 1, read-out: MIC) of the same molecule?
Answer: 2 µg/mL (≈ 5.72 µM)

Question: What about the MIC (Staphylococcus aureus, ATCC 29213 / MRSA, Staph. aureus ATCC 29213, Test 2, read-out: MIC) of the same molecule?
Answer: 2 µg/mL (≈ 5.72 µM)

Question: What about the MIC (Staphylococcus aureus, MRSA, 21 isolates, read-out: MIC mode) of the same molecule?
Answer: > 128 µg/mL

Question: What about the MIC (Staphylococcus aureus, MRSA, MRSA 516, Test 1, read-out: MIC) of the same molecule?
Answer: 32 µg/mL (≈ 91.6 µM)

Question: What about the MIC (Staphylococcus aureus, MRSA, MRSA 516, Test 2, read-out: MIC) of the same molecule?
Answer: 32 µg/mL (≈ 91.6 µM)

Question: And the MIC (Staphylococcus aureus, MRSA, MRSA 570, Test 1, read-out: MIC)?
Answer: > 128 µg/mL

Question: And the MIC (Staphylococcus aureus, MRSA, MRSA 570, Test 2, read-out: MIC)?
Answer: > 128 µg/mL

Question: What about the MIC (Staphylococcus aureus, MRSA, MRSA 580, Test 1, read-out: MIC) of the same molecule?
Answer: > 128 µg/mL

Question: And the MIC (Staphylococcus aureus, MRSA, MRSA 580, Test 2, read-out: MIC)?
Answer: > 128 µg/mL

Question: And the MIC (Staphylococcus aureus, MRSA, MRSA 606, Test 1, read-out: MIC)?
Answer: 32 µg/mL (≈ 91.6 µM)

Question: And the MIC (Staphylococcus aureus, MRSA, MRSA 606, Test 2, read-out: MIC)?
Answer: 32 µg/mL (≈ 91.6 µM)

Question: And the MIC (Staphylococcus aureus, MRSA, MRSA 610, Test 1, read-out: MIC)?
Answer: 128 µg/mL (≈ 366 µM)

Question: And the MIC (Staphylococcus aureus, MRSA, MRSA 610, Test 2, read-out: MIC)?
Answer: 128 µg/mL (≈ 366 µM)

Question: And the MIC [1]?
Answer: 64 µg/mL (≈ 183 µM)

Question: What about the MIC (Staphylococcus aureus, MRSA, MRSA 616, Test 2, read-out: MIC) of the same molecule?
Answer: 64 µg/mL (≈ 183 µM)

Question: What about the MIC (Staphylococcus aureus, MRSA, MRSA 622, Test 1, read-out: MIC) of the same molecule?
Answer: 64 µg/mL (≈ 183 µM)

Question: And the MIC (Staphylococcus aureus, MRSA, MRSA 622, Test 2, read-out: MIC)?
Answer: 64 µg/mL (≈ 183 µM)

Question: And the MIC (Staphylococcus aureus, MRSA, MRSA 698, Test 1, read-out: MIC)?
Answer: 64 µg/mL (≈ 183 µM)

Question: And the MIC (Staphylococcus aureus, MRSA, MRSA 698, Test 2, read-out: MIC)?
Answer: 64 µg/mL (≈ 183 µM)

Question: And the MIC (Staphylococcus aureus, MRSA, MRSA 713, Test 1, read-out: MIC)?
Answer: > 128 µg/mL

Question: What about the MIC (Staphylococcus aureus, MRSA, MRSA 713, Test 2, read-out: MIC) of the same molecule?
Answer: > 128 µg/mL

Question: What about the MIC (Staphylococcus aureus, MRSA, MRSA 718, Test 1, read-out: MIC) of the same molecule?
Answer: > 128 µg/mL

Question: And the MIC (Staphylococcus aureus, MRSA, MRSA 718, Test 2, read-out: MIC)?
Answer: > 128 µg/mL

Question: What about the MIC (Staphylococcus aureus, MRSA, MRSA 728, Test 1, read-out: MIC) of the same molecule?
Answer: 64 µg/mL (≈ 183 µM)

Question: And the MIC (Staphylococcus aureus, MRSA, MRSA 728, Test 2, read-out: MIC)?
Answer: 64 µg/mL (≈ 183 µM)

Question: And the MIC (Staphylococcus aureus, MRSA, MRSA 734, Test 1, read-out: MIC)?
Answer: > 128 µg/mL

Question: What about the MIC (Staphylococcus aureus, MRSA, MRSA 734, Test 2, read-out: MIC) of the same molecule?
Answer: > 128 µg/mL

Question: What about the MIC (Staphylococcus aureus, MRSA, MRSA 741, Test 1, read-out: MIC) of the same molecule?
Answer: 8 µg/mL (≈ 22.9 µM)

Question: What about the MIC (Staphylococcus aureus, MRSA, MRSA 741, Test 2, read-out: MIC) of the same molecule?
Answer: 8 µg/mL (≈ 22.9 µM)

Question: What about the MIC [2] of the same molecule?
Answer: > 128 µg/mL

Question: What about the MIC (Staphylococcus aureus, MRSA, MRSA 747, Test 2, read-out: MIC) of the same molecule?
Answer: > 128 µg/mL

Question: And the MIC (Staphylococcus aureus, MRSA, MRSA 773, Test 1, read-out: MIC)?
Answer: 128 µg/mL (≈ 366 µM)

Question: And the MIC (Staphylococcus aureus, MRSA, MRSA 773, Test 2, read-out: MIC)?
Answer: 64 µg/mL (≈ 183 µM)

Question: What about the MIC (Staphylococcus aureus, MRSA, MRSA 778, Test 1, read-out: MIC) of the same molecule?
Answer: > 128 µg/mL

Question: What about the MIC (Staphylococcus aureus, MRSA, MRSA 778, Test 2, read-out: MIC) of the same molecule?
Answer: > 128 µg/mL

Question: And the MIC (Staphylococcus aureus, MRSA, MRSA 786, Test 1, read-out: MIC)?
Answer: 32 µg/mL (≈ 91.6 µM)

Question: What about the MIC (Staphylococcus aureus, MRSA, MRSA 786, Test 2, read-out: MIC) of the same molecule?
Answer: 64 µg/mL (≈ 183 µM)

Question: And the MIC (Staphylococcus aureus, MRSA, MRSA 787, Test 1, read-out: MIC)?
Answer: > 128 µg/mL

Question: What about the MIC (Staphylococcus aureus, MRSA, MRSA 787, Test 2, read-out: MIC) of the same molecule?
Answer: > 128 µg/mL

Question: And the MIC (Staphylococcus aureus, MRSA, MRSA 815, Test 1, read-out: MIC)?
Answer: 64 µg/mL (≈ 183 µM)

Question: And the MIC (Staphylococcus aureus, MRSA, MRSA 815, Test 2, read-out: MIC)?
Answer: 64 µg/mL (≈ 183 µM)

Question: What about the MIC (Staphylococcus aureus, MRSA, MRSA 823, Test 1, read-out: MIC) of the same molecule?
Answer: > 128 µg/mL

Question: What about the MIC (Staphylococcus aureus, MRSA, MRSA 823, Test 2, read-out: MIC) of the same molecule?
Answer: > 128 µg/mL

Question: And the MIC (Staphylococcus aureus, MRSA, MRSA 844, Test 1, read-out: MIC)?
Answer: 128 µg/mL (≈ 366 µM)

Question: And the MIC (Staphylococcus aureus, MRSA, MRSA 844, Test 2, read-out: MIC)?
Answer: 128 µg/mL (≈ 366 µM)

Question: What about the MIC50 (Staphylococcus aureus, MRSA, 21 isolates) of the same molecule?
Answer: 64 µg/mL (≈ 183 µM)
